Reference: PubChem BioAssay AID463101 (The Scripps Research Institute Molecular Screening Center, 2010)
Active and inactive are the calls of the source.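 How the source made its calls: active means at 63 nM, GSTO1 inhibition of at least 80% or band labeling of at least 80% relative to 1 µM; inactive means the rest.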

Target: Glutathione S-transferase omega-1 (Homo sapiens) (UniProt P78417)
Assay: GSTO1 inhibition versus direct click labeling – cell lysate, MDA-MB-435 proteome, click chemistry, set 2, mechanism study for GSTO1 inhibitor project, late-stage follow-up (AID 463101)
Details: MDA-MB-435 soluble proteome, gel ABPP fluorescence; for outcome / labeling: direct click chemistry labeling assay; for labeling: click chemistry direct labeling series, at 0.25 µM, stronger effect = higher value; for inhibition: in situ competitive ABPP, probe SE-Rh, at 1 µM (top of the series)

Glutathione S-transferase omega-1 (Homo sapiens), sequence (P78417 whole entry, looked up): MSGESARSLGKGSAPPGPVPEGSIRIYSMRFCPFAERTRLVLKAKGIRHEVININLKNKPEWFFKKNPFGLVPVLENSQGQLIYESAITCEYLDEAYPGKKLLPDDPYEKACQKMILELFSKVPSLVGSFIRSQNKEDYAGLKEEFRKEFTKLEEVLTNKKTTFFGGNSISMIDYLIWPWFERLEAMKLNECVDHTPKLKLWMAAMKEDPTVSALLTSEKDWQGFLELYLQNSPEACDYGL

C#CCN(CCCN(C(=O)CCl)c1ccc([N+](=O)[O-])cc1)C(=O)C(F)(F)F
outcome: active
labeling: 94%
inhibition: 100%

C#CCCC(=O)NCCCN(C(=O)CCl)c1ccc([N+](=O)[O-])cc1
outcome: inactive
labeling: 77%
inhibition: 100% (inactive)
